# Source: PubChem BioAssay (NCI)
#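 Tested at 5 concentrations; 48 h exposure; 96-well plates; endpoints linearly interpolated, else capped at highest concentration. GI50: concentration for 50% inhibition of growth. At the TGI there is no net growth.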
# Key:
# Assay in all cases: growth of human tumour cells (NCI), 48 h
# NCI-H460 lung = system: NCI-H460 lung
# HCT-116 colon = system: HCT-116 colon
# OVCAR-8 ovarian = system: OVCAR-8 ovarian
# ACHN renal = system: ACHN renal
# A498 renal = system: A498 renal
# SR leukemia = system: SR leukemia
# TK-10 renal = system: TK-10 renal
# 786-0 renal = system: 786-0 renal
# SF-295 CNS = system: SF-295 CNS
# SK-MEL-5 melanoma = system: SK-MEL-5 melanoma
# SN12C renal = system: SN12C renal
# KM12 colon = system: KM12 colon
# CCRF-CEM leukemia = system: CCRF-CEM leukemia
# SK-MEL-28 melanoma = system: SK-MEL-28 melanoma
# OVCAR-4 ovarian = system: OVCAR-4 ovarian
# HOP-92 NSCLC = system: HOP-92 NSCLC
# RXF 393 renal = system: RXF 393 renal
# LOX IMVI melanoma = system: LOX IMVI melanoma
# K-562 leukemia = system: K-562 leukemia
# PC-3 prostate = system: PC-3 prostate
# COLO 205 colon = system: COLO 205 colon
# MDA-MB-435 = system: MDA-MB-435
# MCF7 breast = system: MCF7 breast
# SNB-19 CNS = system: SNB-19 CNS
# RPMI-8226 leukemia = system: RPMI-8226 leukemia
# NCI/ADR-RES ovarian = system: NCI/ADR-RES ovarian
# MDA-MB-231 breast = system: MDA-MB-231 breast
# SW-620 colon = system: SW-620 colon
# SF-539 CNS = system: SF-539 CNS
# NCI-H522 lung = system: NCI-H522 lung
# T-47D breast = system: T-47D breast
# UO-31 renal = system: UO-31 renal
# SK-MEL-2 melanoma = system: SK-MEL-2 melanoma
# A549 NSCLC = system: A549 NSCLC
# OVCAR-3 ovarian = system: OVCAR-3 ovarian
# HCT-15 colon = system: HCT-15 colon
# IGROV1 ovarian = system: IGROV1 ovarian
# OVCAR-5 ovarian = system: OVCAR-5 ovarian
# UACC-62 melanoma = system: UACC-62 melanoma
# HT29 colon = system: HT29 colon
# HOP-62 NSCLC = system: HOP-62 NSCLC
# U251 CNS = system: U251 CNS
# HCC-2998 colon = system: HCC-2998 colon
# SK-OV-3 ovarian = system: SK-OV-3 ovarian
# SNB-75 CNS = system: SNB-75 CNS
# EKVX NSCLC = system: EKVX NSCLC
# MALME-3M melanoma = system: MALME-3M melanoma
# UACC-257 melanoma = system: UACC-257 melanoma
# HL-60(TB) leukemia = system: HL-60(TB) leukemia
# NCI-H23 lung = system: NCI-H23 lung
# MOLT-4 leukemia = system: MOLT-4 leukemia
# DU-145 prostate = system: DU-145 prostate
# HS 578T breast = system: HS 578T breast
# SF-268 CNS = system: SF-268 CNS
# CAKI-1 renal = system: CAKI-1 renal
# BT-549 breast = system: BT-549 breast
# NCI-H226 lung = system: NCI-H226 lung
# M14 melanoma = system: M14 melanoma
compound,measurement,setting,value
O=C(OCc1nc2nc(Cl)nc(N3CCOCC3)c2[nH]1)n1ccnc1,GI50,NCI-H460 lung,1.86 µM
same,TGI,NCI-H460 lung,4.02 µM
same,GI50,HCT-116 colon,0.65 µM
same,TGI,HCT-116 colon,3.29 µM
same,GI50,OVCAR-8 ovarian,2.56 µM
same,TGI,OVCAR-8 ovarian,11 µM
same,GI50,ACHN renal,1.12 µM
same,TGI,ACHN renal,2.32 µM
same,GI50,A498 renal,2.9 µM
same,TGI,A498 renal,9.83 µM
same,GI50,SR leukemia,1.09 µM
same,TGI,SR leukemia,5.09 µM
same,GI50,TK-10 renal,1.94 µM
same,TGI,TK-10 renal,4.05 µM
same,GI50,786-0 renal,1.84 µM
same,TGI,786-0 renal,3.98 µM
same,GI50,SF-295 CNS,10.5 µM
same,TGI,SF-295 CNS,22.2 µM
same,GI50,SK-MEL-5 melanoma,1.83 µM
same,TGI,SK-MEL-5 melanoma,3.35 µM
same,GI50,SN12C renal,1.38 µM
same,TGI,SN12C renal,2.76 µM
same,GI50,KM12 colon,1.88 µM
same,TGI,KM12 colon,4.72 µM
same,GI50,CCRF-CEM leukemia,1.17 µM
same,TGI,CCRF-CEM leukemia,6.92 µM
same,GI50,SK-MEL-28 melanoma,1.74 µM
same,TGI,SK-MEL-28 melanoma,3.24 µM
same,GI50,OVCAR-4 ovarian,1.63 µM
same,TGI,OVCAR-4 ovarian,3.38 µM
same,GI50,HOP-92 NSCLC,1.17 µM
same,TGI,HOP-92 NSCLC,3.15 µM
same,GI50,RXF 393 renal,1.61 µM
same,TGI,RXF 393 renal,3.06 µM
same,GI50,LOX IMVI melanoma,0.72 µM
same,TGI,LOX IMVI melanoma,2.17 µM
same,GI50,K-562 leukemia,1.68 µM
same,TGI,K-562 leukemia,8.1 µM
same,GI50,PC-3 prostate,1.69 µM
same,TGI,PC-3 prostate,3.65 µM
same,GI50,COLO 205 colon,1.65 µM
same,TGI,COLO 205 colon,3.84 µM
same,GI50,MDA-MB-435,1.32 µM
same,TGI,MDA-MB-435,2.75 µM
same,GI50,MCF7 breast,1.84 µM
same,TGI,MCF7 breast,4.91 µM
same,GI50,SNB-19 CNS,2.42 µM
same,TGI,SNB-19 CNS,6.46 µM
same,GI50,RPMI-8226 leukemia,0.582 µM
same,TGI,RPMI-8226 leukemia,3.32 µM
same,GI50,NCI/ADR-RES ovarian,2.57 µM
same,TGI,NCI/ADR-RES ovarian,8.84 µM
same,GI50,MDA-MB-231 breast,1.63 µM
same,TGI,MDA-MB-231 breast,3.38 µM
same,GI50,SW-620 colon,1.5 µM
same,TGI,SW-620 colon,3.32 µM
same,GI50,SF-539 CNS,1.48 µM
same,TGI,SF-539 CNS,2.82 µM
same,GI50,NCI-H522 lung,1.71 µM
same,TGI,NCI-H522 lung,4.38 µM
same,GI50,T-47D breast,1.88 µM
same,TGI,T-47D breast,4.48 µM
same,GI50,UO-31 renal,1.19 µM
same,TGI,UO-31 renal,2.42 µM
same,GI50,SK-MEL-2 melanoma,1.95 µM
same,TGI,SK-MEL-2 melanoma,4.51 µM
same,GI50,A549 NSCLC,3.24 µM
same,TGI,A549 NSCLC,12.9 µM
same,GI50,OVCAR-3 ovarian,1.29 µM
same,TGI,OVCAR-3 ovarian,2.79 µM
same,GI50,HCT-15 colon,2.06 µM
same,TGI,HCT-15 colon,6.45 µM
same,GI50,IGROV1 ovarian,1.32 µM
same,TGI,IGROV1 ovarian,2.64 µM
same,GI50,OVCAR-5 ovarian,1.52 µM
same,TGI,OVCAR-5 ovarian,3.07 µM
same,GI50,UACC-62 melanoma,1.55 µM
same,TGI,UACC-62 melanoma,2.94 µM
same,GI50,HT29 colon,1.59 µM
same,TGI,HT29 colon,4.33 µM
same,GI50,HOP-62 NSCLC,1.64 µM
same,TGI,HOP-62 NSCLC,4.78 µM
same,GI50,U251 CNS,1.96 µM
same,TGI,U251 CNS,4.32 µM
same,GI50,HCC-2998 colon,2.22 µM
same,TGI,HCC-2998 colon,4.16 µM
same,GI50,SK-OV-3 ovarian,3.4 µM
same,TGI,SK-OV-3 ovarian,14.3 µM
same,GI50,SNB-75 CNS,1.04 µM
same,TGI,SNB-75 CNS,3.49 µM
same,GI50,EKVX NSCLC,2.04 µM
same,TGI,EKVX NSCLC,4.66 µM
same,GI50,MALME-3M melanoma,1.72 µM
same,TGI,MALME-3M melanoma,3.22 µM
same,GI50,UACC-257 melanoma,1.9 µM
same,TGI,UACC-257 melanoma,3.94 µM
same,GI50,HL-60(TB) leukemia,1.51 µM
same,TGI,HL-60(TB) leukemia,4.55 µM
same,GI50,NCI-H23 lung,2.41 µM
same,TGI,NCI-H23 lung,5.69 µM
same,GI50,MOLT-4 leukemia,2.29 µM
same,TGI,MOLT-4 leukemia,6.47 µM
same,GI50,DU-145 prostate,1.59 µM
same,TGI,DU-145 prostate,3.18 µM
same,GI50,HS 578T breast,1.96 µM
same,TGI,HS 578T breast,5.37 µM
same,GI50,SF-268 CNS,1.74 µM
same,TGI,SF-268 CNS,3.6 µM
same,GI50,CAKI-1 renal,1.21 µM
same,TGI,CAKI-1 renal,2.84 µM
same,GI50,BT-549 breast,2.49 µM
same,TGI,BT-549 breast,9.49 µM
COc1ccc(C2=C(Cl)C(=O)N(c3ccc(OC)cc3OC)C(=O)C2(Cl)Cl)cc1,TGI,NCI-H460 lung,> 100 µM
same,TGI,NCI-H226 lung,27.1 µM
same,TGI,HCT-116 colon,28.9 µM
same,TGI,OVCAR-8 ovarian,52.4 µM
same,TGI,ACHN renal,29.1 µM
same,TGI,SR leukemia,36.4 µM
same,TGI,TK-10 renal,37.7 µM
same,TGI,786-0 renal,29 µM
same,TGI,SF-295 CNS,66.4 µM
same,TGI,SK-MEL-5 melanoma,28.1 µM
same,TGI,SN12C renal,13.8 µM
same,TGI,KM12 colon,33.6 µM
same,TGI,SK-MEL-28 melanoma,36.1 µM
same,TGI,OVCAR-4 ovarian,32.2 µM
same,TGI,HOP-92 NSCLC,36.6 µM
same,TGI,RXF 393 renal,57 µM
same,TGI,LOX IMVI melanoma,30.8 µM
same,TGI,K-562 leukemia,> 100 µM
same,TGI,PC-3 prostate,33.5 µM
same,TGI,COLO 205 colon,39.4 µM
same,TGI,MDA-MB-435,34.4 µM
same,TGI,MCF7 breast,64.7 µM
same,TGI,SNB-19 CNS,> 100 µM
same,TGI,M14 melanoma,29.7 µM
same,TGI,NCI/ADR-RES ovarian,41.9 µM
same,TGI,MDA-MB-231 breast,20.5 µM
same,TGI,SW-620 colon,30.1 µM
same,TGI,SF-539 CNS,23.5 µM
same,TGI,NCI-H522 lung,36.5 µM
same,TGI,T-47D breast,30.3 µM
same,TGI,UO-31 renal,37.4 µM
same,TGI,SK-MEL-2 melanoma,63.6 µM
same,TGI,A549 NSCLC,> 100 µM
same,TGI,OVCAR-3 ovarian,25 µM
same,TGI,HCT-15 colon,27.9 µM
same,TGI,IGROV1 ovarian,44.3 µM
same,TGI,OVCAR-5 ovarian,27.6 µM
same,TGI,UACC-62 melanoma,28 µM
same,TGI,HT29 colon,38.4 µM
same,TGI,HOP-62 NSCLC,36.9 µM
same,TGI,U251 CNS,30.2 µM
same,TGI,SK-OV-3 ovarian,> 100 µM
same,TGI,SNB-75 CNS,90.3 µM
same,TGI,EKVX NSCLC,87.1 µM
same,TGI,MALME-3M melanoma,35.8 µM
same,TGI,UACC-257 melanoma,39.3 µM
same,TGI,HL-60(TB) leukemia,69.8 µM
same,TGI,NCI-H23 lung,31 µM
same,TGI,MOLT-4 leukemia,74 µM
same,TGI,DU-145 prostate,31 µM
same,TGI,HS 578T breast,16.4 µM
same,TGI,SF-268 CNS,65.9 µM
same,TGI,CAKI-1 renal,25.2 µM
same,TGI,BT-549 breast,77.3 µM
